Laboratory results: patent US9394314B2, “8′-hydroxy-dihydroergotamine compounds and compositions” (priority 2012, dated 2016)

Assays:
[1] = cited from earlier work
[2] = subcutaneously, concentration 1.5 mM; cited from earlier work
human 5-HT1D receptor = target: T1, human 5-HT1D receptor (Homo sapiens, UniProt P28221); test: Radioligand binding assay (competition and kinetics), CHO-K1 membranes
T1 construct: purchased Euroscreen; host or cells: CHO-K1
Experimental: (§1) For kinetics of radioligand competitive binding, serial dilutions were performed from master solution in 100% DMSO to obtain intermediate concentrations 200-fold higher than the concentrations to be tested. Each test sample was diluted 100-fold in the assay buffer and dispensed into the test plate.
5-HT1D Radioligand Binding Assay
Assay buffer: 50 mM Tris (pH 7.4), 4 mM CaCl2, 0.1% ascorbic acid
(§2) Washing buffer: 50 mM Tris (pH 7.4)
Membrane: recombinant CHO-K1-5-HT1D membranes thawed on ice and diluted in assay buffer (10 μg/well)
Ligand: 5-HT (Sigma, H-9523)
(§3) Determination of IC50 and Ki constant for each test compound. […] After washing the filters 5 times with 0.5 mL of ice-cold washing buffer, 50 μL of Microscint 20 (Packard) were added to the filters and the plates were incubated 15 min on an orbital shaker and then counted for 1 min/well. […]
(§4) Determination of kon and koff constants for each test compound. Each compound was first assessed in a pilot experiment to evaluate its effect on the kinetic binding of each receptor-radioligand pair. […] After washing the filters 5 times with 0.5 mL of ice-cold washing buffer, 50 μL of Microscint 20 (Packard) were added to the filters and the plates were incubated 15 min on an orbital shaker and then counted for 1 min/well.

human 5-HT1B receptor = target: T2, human 5-HT1B receptor (Homo sapiens, UniProt P28222); test: as above
T2 construct: purchased Euroscreen; host or cells: CHO-K1
Experimental: as §1
5-HT1B Radioligand Binding Assay
as §2
Ligand: 5-CT (Tocris, 0458)
Determination of IC50 and Ki constant for each test compound. […] The samples were incubated for 60 min (or 4 hours for a second experiment on 5-HT2B receptors) at a temperature optimized for each receptor and then filtered over a filter plate. After washing the filters 5 times with 0.5 mL of ice-cold washing buffer, 50 μL of Microscint 20 (Packard) were added to the filters and the plates were incubated 15 min on an orbital shaker and then counted for 1 min/well. The test compounds were tested in duplicate at the nanomolar concentrations reported below in Table 5.
as §4

human D2L receptor = target: T3, human D2L receptor (Homo sapiens, UniProt P14416); test: as above
T3 construct: purchased Euroscreen; host or cells: CHO-K1
Experimental: as §1
D2L Radioligand Binding Assay
Assay buffer: 25 mM HEPES (pH 7.4), 5 mM MgCl2, 1 mM CaCl2, BSA protease free 0.5%
Washing buffer: 25 mM HEPES (pH 7.4), 5 mM MgCl2, 1 mM CaCl2
Membrane: recombinant CHO-K1-D2L membranes thawed on ice and diluted in assay buffer (2 μg/well)
Ligand: Risperidone (Tocris Bioscience, 2865) […]
as §3
as §4, with “min/well. […]” for “min/well.”

T1 sequence (P28221 whole entry): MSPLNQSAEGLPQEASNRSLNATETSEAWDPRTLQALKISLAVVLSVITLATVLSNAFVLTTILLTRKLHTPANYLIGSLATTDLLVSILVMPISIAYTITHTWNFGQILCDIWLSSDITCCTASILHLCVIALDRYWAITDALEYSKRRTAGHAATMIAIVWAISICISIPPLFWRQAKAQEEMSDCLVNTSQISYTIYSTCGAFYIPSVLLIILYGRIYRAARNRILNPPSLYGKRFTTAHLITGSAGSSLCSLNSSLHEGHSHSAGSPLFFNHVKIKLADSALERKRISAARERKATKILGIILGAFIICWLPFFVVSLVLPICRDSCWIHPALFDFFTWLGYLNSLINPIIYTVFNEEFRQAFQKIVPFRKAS
T2 sequence (P28222 whole entry): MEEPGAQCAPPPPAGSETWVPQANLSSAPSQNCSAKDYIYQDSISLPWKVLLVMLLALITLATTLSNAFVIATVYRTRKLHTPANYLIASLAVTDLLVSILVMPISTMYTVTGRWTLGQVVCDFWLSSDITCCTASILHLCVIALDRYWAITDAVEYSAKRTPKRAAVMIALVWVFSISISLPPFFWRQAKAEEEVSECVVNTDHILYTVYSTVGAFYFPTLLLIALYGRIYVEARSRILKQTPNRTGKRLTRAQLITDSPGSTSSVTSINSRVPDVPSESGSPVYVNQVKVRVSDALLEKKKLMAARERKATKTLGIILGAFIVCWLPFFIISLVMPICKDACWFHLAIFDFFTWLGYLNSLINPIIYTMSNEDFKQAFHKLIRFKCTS
T3 sequence (P14416 whole entry): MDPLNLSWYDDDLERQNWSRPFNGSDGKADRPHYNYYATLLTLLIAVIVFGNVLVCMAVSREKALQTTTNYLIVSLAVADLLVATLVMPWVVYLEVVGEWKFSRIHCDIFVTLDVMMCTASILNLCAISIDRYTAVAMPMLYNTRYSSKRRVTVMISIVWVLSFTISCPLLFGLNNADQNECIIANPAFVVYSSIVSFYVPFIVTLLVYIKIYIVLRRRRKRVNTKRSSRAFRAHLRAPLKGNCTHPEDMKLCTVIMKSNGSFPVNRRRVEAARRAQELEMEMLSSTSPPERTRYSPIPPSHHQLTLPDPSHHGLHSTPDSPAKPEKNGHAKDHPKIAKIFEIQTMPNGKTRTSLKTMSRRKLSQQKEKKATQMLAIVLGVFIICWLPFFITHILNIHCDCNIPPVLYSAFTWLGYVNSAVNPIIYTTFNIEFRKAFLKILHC

**Q.** What does the source list for `CN1C[C@H](C(=O)N[C@]2(C)O[C@@]3(O)[C@@H]4CCCN4C(=O)[C@H](Cc4ccccc4)N3C2=O)C[C@@H]2c3cccc4[nH]cc(c34)C[C@H]21` [DHE, Dihydroergotamine]?
**A.** fraction of administered dose extracted in the urine ([1]; IM administered dose): 6-7%; total DHE metabolites as share of plasma AUC ([1]; nasal administration of DHE): 20-30%; treated patients with nausea [2]: ~16%

**Q.** With `CN1C[C@H](C(=O)N[C@]2(C)O[C@@]3(O)[C@@H]4CCC(O)N4C(=O)[C@H](Cc4ccccc4)N3C2=O)C[C@@H]2c3cccc4[nH]cc(c34)C[C@H]21` (stereo partly shown) [8′-OH DHE, 8′-Hydroxy-Dihydroergotamine] as the compound, how does the “concentration of 8′-OH DHE metabolite relative to parent DHE” value ([1]; previous studies) read?
**A.** Its value is 5 to 7 times.

**Q.** What about the “Avg Koff” value (human 5-HT1D receptor) of the same compound?
**A.** The value was 0.000175 s⁻¹.

**Q.** And the “Avg Koff” value (human 5-HT1B receptor)?
**A.** The value was 9.83e-05 s⁻¹.

**Q.** And the “Avg Koff” value (human D2L receptor)?
**A.** Its value is 0.00127 s⁻¹.
